According to PubChem BioAssay (NCI):
Values joined by “and” are separate entries in the source; they are usually repeats but may differ in a detail not shown here. Identical values can stand only once.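 A five-concentration, 48-hour dose response in 96-well plates underlies each endpoint, interpolated linearly between surrounding concentrations. GI50 is the concentration that inhibits growth by half. TGI denotes the concentration required for complete inhibition of growth.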

Tests used:
Experiment in all cases: NCI anticancer screen, dose series, 48 h
[1] = tested on: ACHN renal
[2] = tested on: TK-10 renal
[3] = tested on: COLO 205 colon
[4] = tested on: OVCAR-4 ovarian
[5] = tested on: NCI-H460 lung
[6] = tested on: OVCAR-8 ovarian
[7] = tested on: MOLT-4 leukemia
[8] = tested on: SF-295 CNS
[9] = tested on: RPMI-8226 leukemia
[10] = tested on: MCF7 breast

In the case of `Clc1ccccc1C1N2CCCCC2[C@@H]2c3[nH]c4ccccc4c3CCN12` (stereo partly specified), the TGI [1] is reported as 45.8 µM, the TGI [2] is reported as 60 µM and the TGI [3] is reported as 37.4 µM. For the same compound, the TGI [4] was 44.4 µM, the TGI [5] was 35.6 µM and the TGI [6] was 39.9 µM. For the same compound, the TGI [7] was 82.6 µM, the TGI [8] was 58.9 µM and the TGI [9] was 66.6 µM.

In the case of `C=CC[N+]1(CCO)CCN=C1CCCCCCCCCCCCC` (stereo unspecified), the GI50 [2] is reported as 1.99 µM, the TGI [2] is reported as 3.4 µM and the GI50 [3] is reported as 1.7 µM. The TGI [3] was 3.08 µM, the GI50 [4] was 1.67 µM and the TGI [4] was 3.45 µM. The GI50 [5] was 1.7 µM, the TGI [5] was 3.06 µM and the GI50 [10] was 1.5 µM. The TGI [10] was 2.82 µM, the GI50 [8] was 1.81 µM and the TGI [8] was 3.3 µM.

`CCCCCCCCCCCCC/C=C1\C[C@H](O)COC1=O` was tested, and the TGI [1] was 29.4 µM, the TGI [2] was 31.8 µM and the TGI [4] was 32.7 µM. The TGI [5] was 33.4 µM, the TGI [8] was 33 µM and the TGI [9] was 41 µM.

In the case of `COC1=C(C)C(=O)C2=C(C1=O)C(CO)N1C(C#N)C3CC4C(C1C2N1CCOC41)N3C` (stereo unspecified), the GI50 [1] is reported as 0.00277 µM, the TGI [1] is reported as 3.54 µM and 10.6 µM and the GI50 [2] is reported as 0.247 µM and 0.0437 µM. The TGI [2] was 4.05 µM and 15.6 µM, the GI50 [3] was 0.000734 µM and 0.00604 µM and < 0.0134 µM and the TGI [3] was 0.0203 µM and 0.0151 µM and 0.0205 µM. The GI50 [4] was 0.128 µM and 0.0409 µM and 0.0516 µM, the TGI [4] was 0.728 µM and 0.218 µM and 0.332 µM and the TGI [6] was 0.257 µM and 0.404 µM and 0.0957 µM. For the same compound, the GI50 [8] was 0.142 µM, the TGI [8] was 0.845 µM and 0.678 µM and 1.11 µM and the GI50 [9] was 0.0177 µM.

With `c1ccc(CCCC2Sc3cccc4cccc(c34)S2)cc1` the TGI [1] was > 100 µM, the TGI [2] was > 100 µM and the TGI [3] was > 100 µM. The TGI [4] was > 100 µM, the TGI [5] was > 100 µM and the TGI [6] was > 100 µM. The TGI [8] was > 100 µM and the TGI [9] was > 100 µM.

Compound `COc1cc(CNc2nc3cc(N)cc(N)c3nc2-c2ccccc2)cc(OC)c1OC` has a GI50 [1] of 5.33 µM, a TGI [1] of 11.2 µM and a GI50 [2] of 6.25 µM. The TGI [2] was 17.9 µM, the GI50 [3] was 3.77 µM and the TGI [3] was > 50 µM. The GI50 [5] was 1.53 µM, the TGI [5] was > 50 µM and the GI50 [6] was 7 µM. For the same compound, the TGI [6] was 14.8 µM, the GI50 [7] was 12.4 µM and the TGI [7] was > 50 µM. For the same compound, the GI50 [10] was 1.55 µM, the TGI [10] was > 50 µM and the GI50 [8] was 1.67 µM. For the same compound, the TGI [8] was 5.62 µM, the GI50 [9] was 0.697 µM and the TGI [9] was 3 µM.

`N.N.N.N.N.N#N.[Cl-].[Os+7]` was tested, and the GI50 [2] was > 100 µM, the TGI [2] was > 100 µM and the GI50 [3] was > 100 µM. For the same compound, the TGI [3] was > 100 µM, the GI50 [4] was > 100 µM and the TGI [4] was > 100 µM. For the same compound, the GI50 [5] was > 100 µM, the TGI [5] was > 100 µM and the GI50 [6] was > 100 µM. The TGI [6] was > 100 µM, the GI50 [8] was > 100 µM and the TGI [8] was > 100 µM. For the same compound, the GI50 [9] was > 100 µM and the TGI [9] was > 100 µM.

Work on `CCCCCCCCCCCCOC1C(CNCC2OC3OC(C)(C)OC3C2NC(=O)Nc2ccc(C(F)(F)F)cc2)OC2OC(C)(C)OC21` (stereo unspecified) yielded a GI50 [1] of 7.05 µM, a TGI [1] of 14 µM and a GI50 [2] of 3.39 µM. It also gave a TGI [2] of 7.86 µM, a GI50 [3] of 3.26 µM and a TGI [3] of 7.32 µM. The GI50 [4] was 5.43 µM, the TGI [4] was 13.2 µM and the GI50 [5] was 4.23 µM. For the same compound, the TGI [5] was 11.8 µM, the GI50 [6] was 6.81 µM and the TGI [6] was 18.1 µM. The GI50 [10] was 3.53 µM, the TGI [10] was 7.94 µM and the GI50 [8] was 9 µM. The TGI [8] was 17.9 µM, the GI50 [9] was 7.06 µM and the TGI [9] was 18.7 µM.

`CCOC(=O)C12CCSC1C1(C#N)C(C#N)=CC2(N=P(c2ccccc2)(c2ccccc2)c2ccccc2)n2c(=O)n(-c3ccccc3)c(=O)n21` (stereo unspecified) was tested, and the TGI [1] was > 100 µM, the TGI [2] was > 100 µM and the TGI [3] was > 100 µM. For the same compound, the TGI [4] was 79.8 µM, the TGI [5] was > 100 µM and the TGI [6] was > 100 µM. The TGI [7] was 88.1 µM, the TGI [8] was > 100 µM and the TGI [9] was 73.4 µM.

For `Cc1cccc(Cl)c1NC(N)=S`, the TGI [1] was 82.5 µM, the TGI [2] was > 100 µM and the TGI [3] was > 100 µM. For the same compound, the TGI [4] was > 100 µM, the TGI [5] was > 100 µM and the TGI [6] was 79.8 µM. The TGI [7] was > 100 µM, the TGI [8] was > 100 µM and the TGI [9] was 58.8 µM.

`Cc1ccc(/C=N/NS(=O)(=O)c2ccccc2)cc1` was tested, and the TGI [1] was > 100 µM, the TGI [2] was > 100 µM and the TGI [3] was > 100 µM. For the same compound, the TGI [4] was > 100 µM, the TGI [5] was > 100 µM and the TGI [6] was > 100 µM. For the same compound, the TGI [7] was > 100 µM, the TGI [8] was > 100 µM and the TGI [9] was > 100 µM.

For `CCOc1ccccc1NC(=O)C(=O)C(C(=O)c1ccc2ccccc2c1)C1OC(=O)c2ccccc21` (stereo unspecified), the TGI [1] was > 100 µM, the TGI [2] was 54.8 µM and the TGI [3] was 29.7 µM. It also gave a TGI [4] of 24.6 µM, a TGI [5] of 52.2 µM and a TGI [6] of 38.8 µM. It also gave a TGI [7] of 30.3 µM and a TGI [9] of 40 µM.

With `NC1=NN(c2ccccc2)C(=O)C1/C(=N\NC(=O)c1cc2ccccc2cc1O)C(=O)Nc1nc([N+](=O)[O-])cs1` (stereo unspecified) the TGI [1] was > 100 µM, the TGI [2] was > 100 µM and the TGI [3] was 54.8 µM. For the same compound, the TGI [4] was > 100 µM, the TGI [5] was 46.1 µM and the TGI [6] was 62.6 µM. For the same compound, the TGI [7] was 58.8 µM, the TGI [8] was > 100 µM and the TGI [9] was 87.8 µM.

`COc1cc(-c2nc3ccccc3[nH]2)ccc1OCC(=O)N=Nc1c(O)[nH]c2ccc(Cl)cc12` was tested, and the GI50 [1] was 4.75 µM, the TGI [1] was > 100 µM and the GI50 [2] was 2.58 µM. It also gave a TGI [2] of 5.77 µM, a GI50 [3] of 1.89 µM and a TGI [3] of 3.79 µM. It also gave a GI50 [4] of 2.02 µM, a TGI [4] of 3.54 µM and a GI50 [5] of 1.15 µM. For the same compound, the TGI [5] was 2.84 µM, the GI50 [7] was 0.827 µM and the TGI [7] was 3.12 µM. For the same compound, the GI50 [10] was 0.57 µM, the TGI [10] was 2.39 µM and the GI50 [8] was 1.81 µM. For the same compound, the TGI [8] was 3.35 µM, the GI50 [9] was 1.12 µM and the TGI [9] was 3.76 µM.

For `CCOC(=O)/C(=C/c1ccccc1)C(=O)c1ccccc1`, the GI50 [1] was 2.62 µM, the TGI [1] was 6.99 µM and the GI50 [2] was 3.41 µM. The TGI [2] was 11.2 µM, the GI50 [3] was 2.43 µM and the TGI [3] was 5.04 µM. It also gave a GI50 [4] of 14.4 µM, a TGI [4] of 35.4 µM and a GI50 [5] of 3.27 µM. It also gave a TGI [5] of 10.9 µM, a GI50 [6] of 2.4 µM and a TGI [6] of 6.79 µM. The GI50 [10] was 3.13 µM, the TGI [10] was 15.9 µM and the GI50 [8] was 4.19 µM. The TGI [8] was 15.2 µM, the GI50 [9] was 2.25 µM and the TGI [9] was 5.98 µM.

`CC1(C(=O)NCCN(CCNC(=O)C2(C)CC3(C)CC(C)(C2)C(=O)NC3=O)CCNC(=O)C2(C)CC3(C)CC(C)(C2)C(=O)NC3=O)CC2(C)CC(C)(C1)C(=O)NC2=O` (stereo unspecified) was tested, and the TGI [1] was > 100 µM, the TGI [3] was > 100 µM and the TGI [4] was > 100 µM. The TGI [5] was > 100 µM, the TGI [6] was > 100 µM and the TGI [7] was > 100 µM. The TGI [8] was > 100 µM and the TGI [9] was > 100 µM.

In the case of `C/C=C/C(=O)[C@@H](O)C(C)C`, the TGI [1] is reported as > 100 µM, the TGI [2] is reported as > 100 µM and the TGI [3] is reported as > 100 µM. The TGI [4] was > 100 µM, the TGI [6] was > 100 µM and the TGI [7] was > 100 µM. For the same compound, the TGI [8] was > 100 µM and the TGI [9] was > 100 µM.

In the case of `CCN1CCC2(CC1)NC(=O)c1c(c3ccc(Cl)c(Cl)c3n1C)C2C#N` (stereo unspecified), the GI50 [1] is reported as 2.92 µM, the TGI [1] is reported as 12.8 µM and the GI50 [2] is reported as 1.8 µM. For the same compound, the TGI [2] was 5.38 µM, the GI50 [3] was 1.86 µM and the TGI [3] was 4.11 µM. It also gave a GI50 [4] of 3.83 µM, a TGI [4] of 15.1 µM and a GI50 [5] of 2.34 µM. The TGI [5] was 6.45 µM, the GI50 [7] was 2.43 µM and the TGI [7] was 8.66 µM. It also gave a GI50 [10] of 1.56 µM, a TGI [10] of 3.28 µM and a GI50 [8] of 1.79 µM. The TGI [8] was 4.35 µM, the GI50 [9] was 1.55 µM and the TGI [9] was 4.59 µM.
